{
  "source": "patent US10273461B2",
  "about": "“Employing human adipose-derived stem cells to propagate serum-derived hepatitis C virus and use thereof” (FRONTIER BIO-DRUG DEVELOPMENT LIMITED, priority 2015, dated 2019)",
  "tested_on": "HCVser-1b",
  "assay": "Drug inhibition assay in HCVser-infected hADSC",
  "type": "cell-based, hepatitis C virus",
  "settings": "p4-5 hADSC, graded concentrations, 21 days' cell lysates, qRT-PCR, IFNα as 16 h pretreatment",
  "data": [
    {"compound": "cyclosporine A", "values": [
      {"measurement": "HCV replication (viral 5'-UTR transcripts, fraction inhibition vs vehicle control)", "value": "inhibited in a dose-responsive manner"}
    ]},
    {"compound": "IFNα", "values": [
      {"measurement": "HCV replication (viral 5'-UTR transcripts, fraction inhibition vs vehicle control)", "value": "inhibited in a dose-responsive manner"}
    ]},
    {"compound": "NC(=O)c1ncn([C@@H]2O[C@H](CO)[C@@H](O)[C@H]2O)n1", "note": "[ribavirin]", "values": [
      {"measurement": "HCV replication (viral 5'-UTR transcripts, fraction inhibition vs vehicle control)", "value": "inhibited in a dose-responsive manner"}
    ]}
  ]
}
